Measurements published in the CheMixHub viscosity set.
Several values for one entry are separate records, joined by “and”; a condition that tells them apart may be missing. Equal values may be shown once.

Experiments:
[1] = xn = mol fraction of the nth substance listed

ClCCCCCCCl
101 kPa
Settings	viscosity
308.15 K	1.616 mPa·s
313.15 K	1.533 mPa·s and 1.534 mPa·s
318.15 K	1.387 mPa·s

C=C(C)C(=O)OC
viscosity
Settings	298.15 K	303.15 K	308.15 K	313.15 K
101 kPa	0.5625 mPa·s	0.5142 mPa·s and 0.524 mPa·s	0.4932 mPa·s	0.4684 mPa·s
101.3 kPa	0.584 mPa·s	–	0.492 mPa·s	–

CCOC(C)OCC
101 kPa
Settings	viscosity [mPa·s]
303.1 K	0.404
313.1 K	0.364

CC1(c2ccccc2)OC1C#N (configuration not stated)
101 kPa
Settings	viscosity [mPa·s]
293.15 K	11.77
298.15 K	9.155
303.15 K	7.386
313.15 K	5.17
323.15 K	3.522

FC1CC(F)(F)C(F)(F)C1(F)F (configuration not stated)
101 kPa
Settings	viscosity [mPa·s]
298.15 K	1.65
313.15 K	1.28
323.15 K	1.08

CCCC[P+](C)(CCCC)CCCC.COS(=O)(=O)[O-]
viscosity
Settings	293.15 K	298.15 K	303.15 K	308.15 K	313.15 K	318.15 K	323.15 K
100 kPa	729.1 mPa·s and 729.1 mPa·s	521.3 mPa·s and 521.3 mPa·s	381.4 mPa·s and 381.4 mPa·s	286.1 mPa·s and 286.1 mPa·s	217 mPa·s and 217 mPa·s	169.1 mPa·s and 169.1 mPa·s	133.4 mPa·s and 133.4 mPa·s
101 kPa	729.1 mPa·s	521.3 mPa·s	381.4 mPa·s	286.1 mPa·s	217 mPa·s	169.1 mPa·s	133.4 mPa·s

CCCC[P+](C)(CCCC)CCCC.COS(=O)(=O)[O-] + CN1CCCC1=O
[1], 101 kPa
Settings	viscosity [mPa·s]
293.15 K, x1 = 0.2318	67.31
293.15 K, x1 = 0.6014	285.4
293.15 K, x1 = 0.7129	437.9
293.15 K, x1 = 0.8086	533
293.15 K, x1 = 0.9022	633.1
293.15 K, x1 = 0.9468	676.8
298.15 K, x1 = 0.2318	38.93
298.15 K, x1 = 0.2971	50.57
298.15 K, x1 = 0.3764	80.09
298.15 K, x1 = 0.7129	294.9
298.15 K, x1 = 0.8086	370.8
298.15 K, x1 = 0.8515	411.3
298.15 K, x1 = 0.9022	451.1
298.15 K, x1 = 0.9468	487
303.15 K, x1 = 0.0914	4.938
303.15 K, x1 = 0.1311	7.781
303.15 K, x1 = 0.2971	25.25
303.15 K, x1 = 0.3764	40.12
303.15 K, x1 = 0.4752	65.25
303.15 K, x1 = 0.8086	262.4
303.15 K, x1 = 0.8515	295.9
303.15 K, x1 = 0.9022	328.3
303.15 K, x1 = 0.9468	353.5
308.15 K, x1 = 0.0914	2.514
308.15 K, x1 = 0.1311	3.429
308.15 K, x1 = 0.1773	6.412
308.15 K, x1 = 0.2318	8.924
308.15 K, x1 = 0.4752	30.51
308.15 K, x1 = 0.6014	66.52
308.15 K, x1 = 0.9468	268.4
313.15 K, x1 = 0.1311	3.214
313.15 K, x1 = 0.1773	4.514
313.15 K, x1 = 0.2318	6.789
313.15 K, x1 = 0.7129	95.25
318.15 K, x1 = 0.1311	4.512
318.15 K, x1 = 0.1773	6.412
318.15 K, x1 = 0.2318	7.124
318.15 K, x1 = 0.6014	31.78
318.15 K, x1 = 0.7129	72.62
323.15 K, x1 = 0.0914	2.515
323.15 K, x1 = 0.1311	3.845
323.15 K, x1 = 0.1773	5.672
323.15 K, x1 = 0.7129	59.09
323.15 K, x1 = 0.8086	88.33

C=C(C)C(=O)OC + CCCCO
viscosity [mPa·s], [1], 101.3 kPa
Settings	298.15 K	308.15 K
x1 = 0.05	2.22	1.726
x1 = 0.1489	1.7	1.355
x1 = 0.2479	1.341	1.092
x1 = 0.3487	1.086	0.9
x1 = 0.4499	0.906	0.761
x1 = 0.5024	0.835	0.705
x1 = 0.5479	0.783	0.664
x1 = 0.6441	0.699	0.596
x1 = 0.7437	0.639	0.546
x1 = 0.8469	0.602	0.513
x1 = 0.9453	0.585	0.496

C=C(C)C(=O)OC + CCCCCCCO
viscosity [mPa·s], [1], 101.3 kPa
Settings	298.15 K	308.15 K
x1 = 0.0526	4.782	3.544
x1 = 0.1258	3.728	2.828
x1 = 0.2484	2.538	1.991
x1 = 0.3455	1.926	1.546
x1 = 0.4471	1.483	1.213
x1 = 0.5009	1.307	1.078
x1 = 0.5615	1.143	0.95
x1 = 0.6456	0.965	0.81
x1 = 0.7444	0.811	0.685
x1 = 0.8476	0.695	0.588
x1 = 0.9438	0.618	0.522

[I-].[Na+] + O
[1], 310.15 K, 101 kPa
Settings	viscosity [mPa·s]
x1 = 0.000186	0.7003
x1 = 0.000929	0.6978
x1 = 0.001834	0.6993
x1 = 0.002695	0.7053
x1 = 0.003679	0.7179
x1 = 0.005197	0.749
x1 = 0.005988	0.7709

C=C(C)C(=O)OC + CCC(C)O
viscosity [mPa·s], [1], 101.3 kPa
Settings	298.15 K	308.15 K
x1 = 0.0597	2.462	2.057
x1 = 0.1551	1.779	1.481
x1 = 0.255	1.32	1.097
x1 = 0.3562	1.022	0.848
x1 = 0.4561	0.83	0.688
x1 = 0.5021	0.766	0.635
x1 = 0.5571	0.704	0.584
x1 = 0.6562	0.626	0.52
x1 = 0.7557	0.581	0.484
x1 = 0.8552	0.564	0.472
x1 = 0.9549	0.572	0.481

O=C(c1ccccc1)N(O)c1ccccc1 + CS(C)=O
[1], 101 kPa
Settings	viscosity [mPa·s]
308.15 K, x1 = 0.1408	2.065
318.15 K, x1 = 0.4694	1.565

C=C(C)C(=O)OC + CCCCOCCCC
viscosity [mPa·s], [1], 101.3 kPa
Settings	298.15 K	308.15 K
x1 = 0.0446	0.633	0.581
x1 = 0.1479	0.616	0.561
x1 = 0.2442	0.603	0.546
x1 = 0.3388	0.593	0.532
x1 = 0.4495	0.584	0.519
x1 = 0.4924	0.581	0.515
x1 = 0.5489	0.579	0.51
x1 = 0.6504	0.576	0.502
x1 = 0.7489	0.575	0.496
x1 = 0.8501	0.577	0.492
x1 = 0.9428	0.581	0.49

CCCCOP(=O)(O)OCCCC + CCCN
[1], 297 K, 101 kPa
Settings	viscosity [mPa·s]
x2 = 0.15	60
x2 = 0.3	100
x2 = 0.48	1370
x2 = 0.5	1700
x2 = 0.66	170

C[N+](C)(C)CCC[N+]1(C)CCCCC1.N#C[N-]C#N.N#C[N-]C#N
100 kPa
Settings	viscosity
293.15 K	4503 mPa·s and 4503 mPa·s
298.15 K	2819 mPa·s
303.15 K	1837 mPa·s and 1837 mPa·s
308.15 K	1224 mPa·s
313.15 K	856.1 mPa·s and 856.1 mPa·s
318.15 K	618.5 mPa·s
323.15 K	460.1 mPa·s and 460.1 mPa·s

CCCC[n+]1ccn(C)c1.O=C([O-])C(F)(F)F + O
Settings	viscosity [mPa·s]
[1], 298.15 K, 101 kPa, x2 = 0.7927	9.03

Cc1ccc(NC(=O)NC(C)CCCC(C)C)cc1NC(=O)NC(C)CCCC(C)C (configuration not stated) + CCCCC
Settings	viscosity [mPa·s]
[1], 293.15 K, 100 kPa, x1 = 0.0002	461

CCCC[n+]1ccn(C)c1.O=C([O-])C(F)(F)F
101 kPa
Settings	viscosity [mPa·s]
298.15 K	52.9
303.15 K	58
313.15 K	37.83
323.15 K	26.11

C=C(C)C(=O)OC + CCCCCO
viscosity [mPa·s], [1], 101.3 kPa
Settings	298.15 K	308.15 K
x1 = 0.0449	3.018	2.317
x1 = 0.1463	2.195	1.733
x1 = 0.2463	1.658	1.34
x1 = 0.3476	1.29	1.064
x1 = 0.4311	1.077	0.9
x1 = 0.5019	0.941	0.793
x1 = 0.5439	0.876	0.74
x1 = 0.6459	0.753	0.641
x1 = 0.7431	0.674	0.575
x1 = 0.8477	0.619	0.527
x1 = 0.9445	0.591	0.501

C=C(C)C(=O)OC + CCCCCC
[1], 303.15 K, 101 kPa
Settings	viscosity [mPa·s]
x1 = 0.1029	0.2962
x1 = 0.2077	0.3069
x1 = 0.4005	0.3338
x1 = 0.5052	0.3523
x1 = 0.6046	0.3758
x1 = 0.7056	0.4934

CCCCCCCCCCCCCCCCCCO + CCCO
[1], 298.15 K, 101 kPa
Settings	viscosity [mPa·s]
x1 = 0.0016	2.071
x1 = 0.0028	2.011
x1 = 0.0106	2.164
x1 = 0.0212	2.332

C=C(C)C(=O)OC + CC(C)(C)O
viscosity [mPa·s], [1], 101.3 kPa
Settings	298.15 K	308.15 K
x1 = 0.0571	3.463	2.088
x1 = 0.1587	2.316	1.51
x1 = 0.256	1.652	1.15
x1 = 0.3589	1.217	0.898
x1 = 0.4561	0.956	0.738
x1 = 0.4983	0.873	0.686
x1 = 0.5567	0.782	0.627
x1 = 0.6571	0.672	0.555
x1 = 0.7563	0.608	0.511
x1 = 0.841	0.58	0.491
x1 = 0.9335	0.573	0.486

COc1ccccc1C + CCCCCOC(C)=O
Settings	viscosity [mPa·s]
[1], 298.15 K, 101 kPa, x1 = 0.5	0.8659
